Laboratory results taken from paper PMC6210068 (ACS Omega, 2018).

Legend:
DOR [1] = biological target: T1, DOR (Homo sapiens, UniProt P41143); test: Radioligand binding at DOR
KOR [2] = biological target: T2, KOR (Homo sapiens, UniProt P41145); test: biochemical; format: binding; conditions: for Ki: KOR, [3H]U69593, mean ± SEM, N = 2–4
MOR [3] = biological target: T3, MOR (Homo sapiens, UniProt P35372); test: biochemical; format: binding; conditions: for MOR, inhibition of radioligand binding at 10 μM (class): Table 2
T3 sequence (P35372 whole entry): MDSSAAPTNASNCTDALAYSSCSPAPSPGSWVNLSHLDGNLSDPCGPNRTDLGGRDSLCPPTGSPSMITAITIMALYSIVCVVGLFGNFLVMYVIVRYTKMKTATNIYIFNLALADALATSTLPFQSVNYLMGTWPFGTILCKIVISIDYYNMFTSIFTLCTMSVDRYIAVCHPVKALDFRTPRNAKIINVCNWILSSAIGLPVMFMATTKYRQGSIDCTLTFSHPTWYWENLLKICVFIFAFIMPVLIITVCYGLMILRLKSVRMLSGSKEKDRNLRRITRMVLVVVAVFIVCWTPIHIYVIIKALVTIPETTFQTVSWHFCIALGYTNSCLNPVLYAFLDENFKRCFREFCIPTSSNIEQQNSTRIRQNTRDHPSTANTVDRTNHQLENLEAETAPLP

hA3AR = biological target: T4, hA3AR (Homo sapiens, UniProt P0DMS8); test: A3AR binding
T4 sequence (P0DMS8 1-318): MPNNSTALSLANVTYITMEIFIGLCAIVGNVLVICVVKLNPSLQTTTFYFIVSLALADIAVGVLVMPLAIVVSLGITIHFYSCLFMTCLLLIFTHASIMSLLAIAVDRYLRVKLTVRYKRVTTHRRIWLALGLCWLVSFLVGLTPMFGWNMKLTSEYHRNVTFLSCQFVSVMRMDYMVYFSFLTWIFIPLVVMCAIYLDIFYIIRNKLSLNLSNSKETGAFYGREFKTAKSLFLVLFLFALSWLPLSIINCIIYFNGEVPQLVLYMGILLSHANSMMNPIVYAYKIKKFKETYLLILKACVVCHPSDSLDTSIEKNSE

5HT2A serotonin receptor = 5HT2A serotonin receptor (Homo sapiens, UniProt P28223); test: PDSP off-target binding, 5HT2A
Sequence of 5HT2A serotonin receptor (P28223 whole entry): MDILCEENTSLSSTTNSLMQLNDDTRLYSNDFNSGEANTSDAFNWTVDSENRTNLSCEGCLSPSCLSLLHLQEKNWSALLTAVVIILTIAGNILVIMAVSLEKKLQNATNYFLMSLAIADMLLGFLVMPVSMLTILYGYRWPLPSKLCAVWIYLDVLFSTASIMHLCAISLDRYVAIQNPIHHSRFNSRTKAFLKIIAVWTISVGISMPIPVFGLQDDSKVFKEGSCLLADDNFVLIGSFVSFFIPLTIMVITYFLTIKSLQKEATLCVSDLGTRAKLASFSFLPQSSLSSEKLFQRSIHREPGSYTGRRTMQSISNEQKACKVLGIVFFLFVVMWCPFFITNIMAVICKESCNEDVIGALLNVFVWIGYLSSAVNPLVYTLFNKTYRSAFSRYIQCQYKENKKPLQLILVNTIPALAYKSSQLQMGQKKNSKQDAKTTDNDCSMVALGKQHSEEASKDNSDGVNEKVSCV

[4] = biological target: rat brain benzodiazepine receptor; test: PDSP binding, rat brain benzodiazepine receptor; conditions: read-out: rat brain benzodiazepine receptor, Ki
rat σ2 receptor = biological target: T5, rat σ2 receptor (Rattus norvegicus, UniProt Q5U3Y7); test: PDSP binding, σ2 receptor
T5 sequence (Q5U3Y7 1-176): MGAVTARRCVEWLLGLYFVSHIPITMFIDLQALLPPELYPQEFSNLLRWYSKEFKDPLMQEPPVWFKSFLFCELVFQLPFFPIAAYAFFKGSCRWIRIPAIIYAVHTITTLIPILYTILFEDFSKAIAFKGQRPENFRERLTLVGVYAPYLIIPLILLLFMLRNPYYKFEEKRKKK

rat kidney TSPO = rat kidney TSPO (Rattus norvegicus, UniProt P16257); test: Radioligand binding at TSPO; conditions: TSPO, Ki, rat TSPO; [3H]PK11195
Sequence of rat kidney TSPO (P16257 whole entry): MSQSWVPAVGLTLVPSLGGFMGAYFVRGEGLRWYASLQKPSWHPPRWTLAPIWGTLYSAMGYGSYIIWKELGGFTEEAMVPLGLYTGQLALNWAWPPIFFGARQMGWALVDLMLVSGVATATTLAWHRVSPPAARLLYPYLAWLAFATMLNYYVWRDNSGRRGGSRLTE

hDAT = hDAT (Homo sapiens, UniProt Q01959); test: Radioligand binding at DAT; conditions: 10 μM; [3H]WIN35428; negative = enhanced radioligand binding
Sequence of hDAT (Q01959 whole entry): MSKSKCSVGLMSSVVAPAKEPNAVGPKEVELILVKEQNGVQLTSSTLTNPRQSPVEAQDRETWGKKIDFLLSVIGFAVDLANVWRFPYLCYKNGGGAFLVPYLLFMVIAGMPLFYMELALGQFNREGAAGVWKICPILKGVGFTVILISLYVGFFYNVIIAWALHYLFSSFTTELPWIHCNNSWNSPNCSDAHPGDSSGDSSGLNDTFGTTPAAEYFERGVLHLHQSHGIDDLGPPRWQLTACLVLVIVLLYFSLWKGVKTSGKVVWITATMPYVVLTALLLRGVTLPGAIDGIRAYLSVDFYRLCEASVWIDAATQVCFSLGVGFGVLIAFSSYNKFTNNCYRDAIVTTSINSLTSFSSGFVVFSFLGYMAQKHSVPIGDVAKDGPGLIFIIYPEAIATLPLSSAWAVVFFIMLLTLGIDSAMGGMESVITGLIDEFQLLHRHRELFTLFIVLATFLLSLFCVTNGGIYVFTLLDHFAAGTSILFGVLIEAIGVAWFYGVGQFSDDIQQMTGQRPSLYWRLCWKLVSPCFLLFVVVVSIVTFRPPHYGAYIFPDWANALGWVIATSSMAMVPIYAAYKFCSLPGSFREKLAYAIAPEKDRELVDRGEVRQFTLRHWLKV

5HT2B serotonin receptor = 5HT2B serotonin receptor (Homo sapiens, UniProt P41595); test: PDSP off-target binding, 5HT2B
Sequence of 5HT2B serotonin receptor (P41595 whole entry): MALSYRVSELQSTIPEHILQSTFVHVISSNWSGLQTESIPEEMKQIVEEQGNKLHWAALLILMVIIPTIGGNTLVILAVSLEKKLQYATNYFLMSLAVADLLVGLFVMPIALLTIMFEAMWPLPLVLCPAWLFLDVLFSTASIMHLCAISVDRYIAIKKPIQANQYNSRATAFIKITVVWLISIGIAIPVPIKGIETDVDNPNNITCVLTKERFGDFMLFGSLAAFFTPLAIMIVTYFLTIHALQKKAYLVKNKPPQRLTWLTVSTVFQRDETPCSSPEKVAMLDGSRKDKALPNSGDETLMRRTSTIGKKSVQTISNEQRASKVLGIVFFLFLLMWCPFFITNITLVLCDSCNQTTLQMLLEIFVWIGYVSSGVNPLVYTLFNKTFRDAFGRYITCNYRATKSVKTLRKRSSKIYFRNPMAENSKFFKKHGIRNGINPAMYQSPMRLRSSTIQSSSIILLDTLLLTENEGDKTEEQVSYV

5HT2C serotonin receptor = biological target: T6, 5HT2C serotonin receptor (Homo sapiens, UniProt P28335); test: PDSP off-target binding, 5HT2C
T6 sequence (P28335 33-458): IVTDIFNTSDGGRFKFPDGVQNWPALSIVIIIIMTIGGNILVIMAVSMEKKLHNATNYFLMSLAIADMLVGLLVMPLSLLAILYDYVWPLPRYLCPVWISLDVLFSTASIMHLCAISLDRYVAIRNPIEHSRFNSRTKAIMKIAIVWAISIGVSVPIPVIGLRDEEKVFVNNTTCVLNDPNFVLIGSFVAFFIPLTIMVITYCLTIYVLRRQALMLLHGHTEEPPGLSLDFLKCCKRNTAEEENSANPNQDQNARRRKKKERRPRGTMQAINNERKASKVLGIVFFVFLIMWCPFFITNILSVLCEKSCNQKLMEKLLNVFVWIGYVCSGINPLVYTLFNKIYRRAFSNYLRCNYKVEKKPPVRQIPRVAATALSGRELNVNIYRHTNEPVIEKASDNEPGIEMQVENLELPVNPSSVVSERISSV

muscarinic M5 receptor = muscarinic M5 receptor (Homo sapiens, UniProt P08912); test: PDSP off-target binding, muscarinic M5
hA1AR = biological target: T7, hA1AR (Homo sapiens, UniProt P30542); test: hA1AR binding
T7 sequence (P30542 1-326): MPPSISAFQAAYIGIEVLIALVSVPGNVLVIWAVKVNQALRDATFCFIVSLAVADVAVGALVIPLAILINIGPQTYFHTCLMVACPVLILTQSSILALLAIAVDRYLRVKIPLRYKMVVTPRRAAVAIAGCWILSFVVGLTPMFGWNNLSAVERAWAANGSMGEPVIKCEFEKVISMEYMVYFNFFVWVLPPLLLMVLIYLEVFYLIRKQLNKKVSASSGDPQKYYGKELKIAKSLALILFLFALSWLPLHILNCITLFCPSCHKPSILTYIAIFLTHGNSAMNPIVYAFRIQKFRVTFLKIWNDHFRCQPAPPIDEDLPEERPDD

hA2AAR = hA2AAR (Homo sapiens, UniProt P29274); test: hA2AAR binding; conditions: read-out: binding inhibition at hA2AAR (% at 10 μM)
Sequence of hA2AAR (P29274 whole entry): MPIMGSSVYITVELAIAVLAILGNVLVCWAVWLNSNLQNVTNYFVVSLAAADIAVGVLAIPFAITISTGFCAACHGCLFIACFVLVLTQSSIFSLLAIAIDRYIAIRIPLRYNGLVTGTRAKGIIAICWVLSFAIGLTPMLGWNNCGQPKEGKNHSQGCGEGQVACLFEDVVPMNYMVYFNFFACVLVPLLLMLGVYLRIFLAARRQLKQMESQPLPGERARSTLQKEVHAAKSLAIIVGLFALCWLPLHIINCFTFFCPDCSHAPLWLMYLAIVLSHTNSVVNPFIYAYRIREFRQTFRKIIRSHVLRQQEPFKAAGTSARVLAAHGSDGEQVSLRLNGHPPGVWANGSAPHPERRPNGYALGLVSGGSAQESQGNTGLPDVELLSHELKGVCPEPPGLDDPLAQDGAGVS

KOR [5] = biological target: T2, KOR; format: cell-based
KOR [6] = biological target: T2, KOR; test: cell-based; format: cell-based
[7] = biological target: human α2C adrenergic receptor (Homo sapiens, UniProt P18825); test: PDSP off-target binding, α2C adrenergic
Sequence of human α2C adrenergic receptor (P18825 whole entry): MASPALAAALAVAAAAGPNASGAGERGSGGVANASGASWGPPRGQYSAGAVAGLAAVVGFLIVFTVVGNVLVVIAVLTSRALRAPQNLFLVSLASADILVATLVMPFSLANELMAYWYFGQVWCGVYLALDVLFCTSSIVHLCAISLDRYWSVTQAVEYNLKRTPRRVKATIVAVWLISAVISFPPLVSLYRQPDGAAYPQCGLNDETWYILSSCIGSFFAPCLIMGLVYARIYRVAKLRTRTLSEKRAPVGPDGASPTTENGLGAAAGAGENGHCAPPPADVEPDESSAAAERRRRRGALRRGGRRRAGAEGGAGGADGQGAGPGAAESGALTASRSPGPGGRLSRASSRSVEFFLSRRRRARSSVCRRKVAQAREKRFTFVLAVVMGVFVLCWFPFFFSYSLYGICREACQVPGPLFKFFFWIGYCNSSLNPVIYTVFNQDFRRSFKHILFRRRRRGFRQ

mA1AR = biological target: T8, mA1AR (Mus musculus, UniProt Q60612); test: mA1AR binding; conditions: read-out: mA1AR binding, % inhibition at 10 μM
T8 sequence (Q60612 1-326): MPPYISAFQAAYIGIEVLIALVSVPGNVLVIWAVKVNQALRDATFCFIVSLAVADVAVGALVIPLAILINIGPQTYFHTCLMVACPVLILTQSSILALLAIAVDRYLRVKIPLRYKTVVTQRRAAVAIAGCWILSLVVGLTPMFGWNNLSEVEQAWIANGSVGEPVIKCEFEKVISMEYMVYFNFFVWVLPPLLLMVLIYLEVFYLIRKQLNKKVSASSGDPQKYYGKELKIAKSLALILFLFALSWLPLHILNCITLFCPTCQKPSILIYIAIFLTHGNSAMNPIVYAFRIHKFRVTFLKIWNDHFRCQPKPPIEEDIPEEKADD

mA2AAR = mA2AAR (Mus musculus, UniProt Q60613); test: mA2AAR binding; conditions: read-out: mA2AAR binding, % inhibition at 10 μM
Sequence of mA2AAR (Q60613 whole entry): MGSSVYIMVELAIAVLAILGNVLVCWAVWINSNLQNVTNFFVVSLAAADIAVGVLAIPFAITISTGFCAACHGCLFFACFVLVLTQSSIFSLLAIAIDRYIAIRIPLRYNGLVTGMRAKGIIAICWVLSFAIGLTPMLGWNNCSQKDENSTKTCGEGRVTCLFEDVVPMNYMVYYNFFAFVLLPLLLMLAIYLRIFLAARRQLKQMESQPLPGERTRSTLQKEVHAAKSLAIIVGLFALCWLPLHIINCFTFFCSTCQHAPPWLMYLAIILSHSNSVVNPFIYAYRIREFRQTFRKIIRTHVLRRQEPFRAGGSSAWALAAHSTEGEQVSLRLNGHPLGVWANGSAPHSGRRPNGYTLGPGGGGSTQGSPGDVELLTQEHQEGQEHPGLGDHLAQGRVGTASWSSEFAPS

DOR [8] = biological target: T1, DOR; test: β-arrestin-recruitment TANGO assay at DOR; format: cell-based; conditions: 10 μM
KOR [9] = biological target: T2, KOR; test: β-arrestin-recruitment TANGO assay at KOR; format: cell-based; conditions: 10 μM; vs naloxone 121 = 100% inhibition; agonist 109 (3 nM)
MOR [10] = biological target: T3, MOR; test: β-arrestin-recruitment TANGO assay at MOR; format: cell-based; conditions: 10 μM
mA3AR = biological target: T9, mA3AR (Mus musculus, UniProt Q61618); conditions: ref Tosh et al. 2,3,6,34,35,37; cited from earlier work
T9 sequence (Q61618 1-319): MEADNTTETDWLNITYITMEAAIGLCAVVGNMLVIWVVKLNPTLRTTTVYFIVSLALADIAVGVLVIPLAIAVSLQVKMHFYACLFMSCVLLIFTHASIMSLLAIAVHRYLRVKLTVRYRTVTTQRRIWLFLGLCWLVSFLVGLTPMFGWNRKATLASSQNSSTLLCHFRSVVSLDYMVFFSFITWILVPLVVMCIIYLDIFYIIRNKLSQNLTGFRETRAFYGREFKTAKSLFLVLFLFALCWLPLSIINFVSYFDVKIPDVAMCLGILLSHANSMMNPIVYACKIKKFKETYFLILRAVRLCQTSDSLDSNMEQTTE

hSERT = hSERT (Homo sapiens, UniProt P31645); test: biochemical; format: binding
β3 adrenergic receptor = β3 adrenergic receptor (Homo sapiens, UniProt P13945); test: PDSP off-target binding, β3 adrenergic
Sequence of β3 adrenergic receptor (P13945 whole entry): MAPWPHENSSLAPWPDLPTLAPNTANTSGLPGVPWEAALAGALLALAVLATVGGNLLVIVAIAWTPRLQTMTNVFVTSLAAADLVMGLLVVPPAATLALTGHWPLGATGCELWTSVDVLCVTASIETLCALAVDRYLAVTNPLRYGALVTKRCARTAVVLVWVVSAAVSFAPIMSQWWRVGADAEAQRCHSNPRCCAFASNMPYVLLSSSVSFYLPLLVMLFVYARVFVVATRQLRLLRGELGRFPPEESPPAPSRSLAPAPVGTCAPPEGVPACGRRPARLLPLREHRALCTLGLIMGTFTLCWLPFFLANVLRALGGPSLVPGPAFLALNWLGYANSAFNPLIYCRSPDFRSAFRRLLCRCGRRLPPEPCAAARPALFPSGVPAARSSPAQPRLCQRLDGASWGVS

T2 sequence (P41145 whole entry): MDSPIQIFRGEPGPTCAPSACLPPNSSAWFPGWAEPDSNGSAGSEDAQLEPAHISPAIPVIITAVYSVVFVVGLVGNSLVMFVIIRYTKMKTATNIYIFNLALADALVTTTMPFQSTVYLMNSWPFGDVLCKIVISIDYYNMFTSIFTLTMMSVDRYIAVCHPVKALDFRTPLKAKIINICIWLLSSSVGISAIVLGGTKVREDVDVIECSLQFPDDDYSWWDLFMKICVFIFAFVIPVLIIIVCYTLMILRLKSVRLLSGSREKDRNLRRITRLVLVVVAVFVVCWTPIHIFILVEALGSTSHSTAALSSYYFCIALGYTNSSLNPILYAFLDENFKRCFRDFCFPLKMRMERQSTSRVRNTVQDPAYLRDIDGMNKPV
T1 sequence (P41143 whole entry): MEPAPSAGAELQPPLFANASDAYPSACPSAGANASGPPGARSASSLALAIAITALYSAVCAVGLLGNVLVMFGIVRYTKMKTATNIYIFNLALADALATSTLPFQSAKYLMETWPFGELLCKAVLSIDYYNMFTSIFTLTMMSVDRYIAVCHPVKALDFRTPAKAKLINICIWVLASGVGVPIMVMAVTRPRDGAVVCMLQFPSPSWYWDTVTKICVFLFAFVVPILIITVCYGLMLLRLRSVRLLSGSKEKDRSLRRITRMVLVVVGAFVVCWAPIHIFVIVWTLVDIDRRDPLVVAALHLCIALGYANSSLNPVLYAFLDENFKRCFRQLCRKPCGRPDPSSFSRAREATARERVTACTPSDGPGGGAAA

| SMILES | Ki (DOR [1]) [nM] | Ki (KOR [2]) [nM] | Ki (MOR [3]) [nM] | Ki (hA3AR) [nM] | Ki (5HT2A serotonin receptor) [nM] | Ki (rat σ2 receptor) [nM] | DOR, inhibition of radioligand binding at 10 μM (class) (DOR [1]; Table 2) | MOR, inhibition of radioligand binding at 10 μM (class) (MOR [3]) | Ki (rat kidney TSPO) [nM] | DAT, inhibition, % of control at 10 μM (hDAT) | Ki (5HT2B serotonin receptor) [nM] | Ki [7] [nM] | further results |
| --- | --- | --- | --- | --- | --- | --- | --- | --- | --- | --- | --- | --- | --- |
| O[C@@H]1[C@H](O)[C@@H]2C[C@@H]2[C@H]1n1ccc2c(NC(C3CC3)C3CC3)nc(C#Cc3ccc(Br)s3)nc21 [compound 57, (1R,2R,3S,4R,5S)-4-(2-((5-Bromothiophen-2-yl)ethynyl)-4-((dicyclopropylmethyl)amino)-7H-pyrrolo[2,3-d]pyrimidin-7-yl)bicyclo[3.1.0]hexane-2,3-diol] | > 10000 | 3020 ± 90 | > 10000 | 2440 ± 430 | 4340 ± 1740 | 6920 | – | – | – | – | – | – | Ki [4]: 118 nM |
| CCOC(=O)[C@@]12C[C@@H]1[C@@H](n1cnc3c(NC)nc(C#Cc4ccc(Cl)s4)cc31)[C@H](O)[C@@H]2O [compound 27] | – | – | – | 47.3 ± 18.9 | 1300 ± 290 | – | ^d (<30% inhibition of radioligand binding at 10 μM) | ^d (<30% inhibition of radioligand binding at 10 μM) | 3390 ± 640 | –354% | 1780 ± 280 | – | KOR binding inhibition at 10 μM (KOR [2]; 10 μM): < 10%; KOR, inhibition of radioligand binding at 10 μM (class) (KOR [2]; Table 2, 10 μM): ^d (<30% inhibition of radioligand binding at 10 μM); Ki (5HT2C serotonin receptor): 400 nM; Ki (muscarinic M5 receptor): 3850 nM |
| CCOC(=O)[C@@]12C[C@@H]1[C@@H](n1ccc3c(NCCc4ccccc4)nc(C#Cc4ccccc4)nc31)[C@H](O)[C@@H]2O [compound 43, Ethyl(1S,2R,3S,4R,5S)-2,3-dihydroxy-4-(4-(phenethylamino)-2-(phenylethynyl)-7H-pyrrolo[2,3-d]pyrimidin-7-yl)bicyclo[3.1.0]hexane-1-carboxylate] | 627 ± 178 | 207 ± 21 | 1770 ± 540 | 483 ± 62 | – | – | – | – | 480 ± 200 | 21% | – | 510 | inhibition at 10 µM (hA1AR; read-out: binding inhibition at hA1AR (% at 10 μM)): 26%; inhibition at 10 µM (hA2AAR): < 10%; inhibition of agonist 98 in βarrestin2 assay (KOR [5]; 1 μM 98): did not inhibit; βarrestin2 recruitment, agonist effect relative to full agonist 98 (KOR [5]; agonist mode, highest concentrations): 30 ± 4.6%; inhibition of agonist 98 in cAMP assay (KOR [6]; 100 nM 98): did not inhibit; inhibition at 30 µM (KOR [6]; CHO, read-out: inhibition of cAMP accumulation, % inhibition at 30 μM): 23% |
| CCOC(=O)[C@@]12C[C@@H]1[C@@H](n1cnc3c(NC)nc(C#Cc4ccc(Cl)s4)nc31)[C@H](O)[C@@H]2O [compound 24] | – | 396 ± 29 | – | – | – | – | ^c (30–50% inhibition of radioligand binding at 10 μM) | ^d (<30% inhibition of radioligand binding at 10 μM) | 1290 ± 70 | – | – | – | inhibition at 10 µM (mA1AR): 43%; inhibition at 10 µM (mA2AAR): 10%; DOR Antag (%) (DOR [8]; vs naloxone 121 = 100% inhibition): 35.3%; DOR Ag (%) (DOR [8]; vs standard agonist = 100%): 0.7%; KOR Antag (%) (KOR [9]): 58.2%; MOR Antag (%) (MOR [10]; vs naloxone 121 = 100% inhibition, agonist 99 (300 nM)): –13.4%; MOR Ag (%) (MOR [10]; vs standard agonist = 100%): 0.3%; A3AR binding, % at 10 μM (m) (mA3AR): 45 ± 5% |
| CCOC(=O)[C@@]12C[C@@H]1[C@@H](n1ccc3c(NC)nc(I)nc31)[C@@H]1OC(C)(C)O[C@@H]12 [compound 73, Ethyl(3aR,3bS,4aS,5R,5aS)-5-(2-iodo-4-(methylamino)-7H-pyrrolo[2,3-d]pyrimidin-7-yl)-2,2-dimethyltetrahydrocyclopropa[3,4]cyclopenta[1,2-d][1,3]dioxole-3b(3aH)-carboxylate] | > 10000 | 276 ± 65 | 7600 | 4050 ± 740 | – | – | – | – | > 10000 | –39% | – | – | Ki (hA1AR): 1110 nM; Ki (hSERT): 6580 nM |
| CNC(=O)[C@@]12C[C@@H]1[C@@H](n1cnc3c(NCc4cccc(Cl)c4)nc(C#Cc4ccccc4)nc31)[C@H](O)[C@@H]2O [compound 6] | – | – | – | – | – | 1540 | – | – | 2650 ± 290 | 7% | 2960 ± 600 | 6300 | DOR, inhibition of radioligand binding at 10 μM (class) (DOR [1]; Table 1): ^e (30–50% inhibition of radioligand binding at 10 μM); Ki (β3 adrenergic receptor): 2600 nM |
